This is an account of results in patent publication US5567605A, “Assay for D-allose using a NAD cofactor coupled D-allose dehydrogenase” (UOP, priority 1994, dated 1996).

Broadly, the Km is the concentration of substrate that gives half-maximal velocity. Broadly, the % Inhibition is how much of the control response was suppressed. Low values mean little suppression, high ones strong suppression.

Data set [1] has as its system D-allose dehydrogenase. Kind of data set: Visual qualitative D-allose assay with electron accepting dyes. The conditions noted are these: phenozine methosulfate and nitro blue tetrazolium, phosphate buffer pH 8.0. The data set is classed as biochemical, Exophiala pisciphila. The text has this: The assay can be coupled with electron accepting dyes to form a visual qualitative D-allose assay. […] Control samples without D-allose remain light pink. The nature of the electron-accepting dye is not critical to the success of this qualitative assay; electron-accepting dyes are well known in the biochemical arts and are merely exemplified by the class of tetrazolium salts, one of which is nitro blue tetrazolium.
The visual D-allose assay contained: […]

Data set [2] concerns D-allose dehydrogenase. Kind of data set: NAD cofactor coupled D-allose dehydrogenase spectrophotometric enzyme assay (340 nm). Type of data set: biochemical, Exophiala pisciphila. The conditions noted are these: for Activity (carbohydrate specificity): Sugar 100 mM as substrate, pH 9.0, 30° C., same dose of enzyme extract. As to the method: Soil and water samples were obtained from several sites and incubated with D-allose in a basic salts solution. The bacterial and fungal cultures were grown aerobically at 30° C. in a rotary incubator at 250 rpm. The basic salts growth medium contained: Na2 HPO4, 16 raM; KH2 PO4, 34 mM; (NH4)2 SO4, 15 mM; MgSO4, 1 mM; CaCl2, 0.1 mM; FeSO4, 0.01 mM and D-allose, 10 mM. The pH of the medium was 6.5. After growth in liquid, as determined by an increase in optical density, the cultures were streaked out on solid agar media containing D-allose as the growth substrate. […] After growth on D-allose, the individual cultures were harvested by centrifugation and the cells disrupted using a sonicator. Cell debris was removed by centrifugation and the crude cell extract was assayed for D-allose dehydrogenase enzymatic activity.
The enzyme assay was performed with a Beckman DU70 recording spectrophotometer using 340 nanometer wavelength light with 20 sec. interval readings for a 10 minute time period. Assays were run in 1 ml cuvettes at a constant temperature of 30° C. The instantaneous reaction rate was measured as the change in optical density per minute; activity was calculated at early reaction times when the changes in optical density were linear with time. The rate of enzyme reaction is directly proportional to the appearance of reduced NAD at 340 nm, because the enzyme oxidizes D-allose and transfers two protons from D-allose to NAD. The extinction coefficient of NADH2 (6.23 OD/1 mM solution) was used to convert the change in optical density per minute to micromoles of product. A standard curve of reaction rate versus substrate concentration was used to determine the D-allose concentration in unknown samples (FIG. 1). The Km of an enzyme is the concentration of substrate that gives one half maximal reaction rate and is thus a measure of the affinity of the enzyme for this substrate. The Vmax of an enzyme is the maximum rate of reaction that can be obtained where the substrate concentration is fully saturating the enzyme. […] An internal standard control using a 20 mM addition of D-allose to a duplicate unknown sample was used to determine if the sample interfered with D-allose measurement. If interference was detected, the unknown sample D-allose concentration was corrected for by the percent interference measured in the internal control sample.
The spectrophotometric enzyme reactions were performed in a 1 mL cuvette that contained the following. […]
The results of Table 1 were obtained at 30° C. using a solution containing 100 mM in D-allose.
In this series, a constant amount of enzyme extract was added to D-allose at various concentrations with the results summarized in Table 2.
In these experiments 1 mL of a 100 mM solution of various sugars were treated at pH 9.0 and 30° C. with the same dose of enzyme extract.

The conditions of data set [3]: animals and humans; cited from earlier work.

Where “and” joins values, the source holds several entries; their conditions need not be identical. Equal values may be shown once.

In the case of `O=C[C@H](O)[C@H](O)[C@H](O)[C@H](O)CO` [D-allose], the visual color change entry with D-allose dehydrogenase [1] is “color change from light pink to dark blue”. In addition, the Km in the data set on D-allose dehydrogenase [2] (30° C., pH 9.0 glycine-NaOH, NAD 5 mM, read-out: apparent Km for the enzyme with D-allose as substrate) was found to be 77 mM. For the same compound, the Activity in the data set with D-allose dehydrogenase [2] (Buffer 0.2 molar, initial pH 9.0, final pH 8.5, 100 mM D-allose, 30° C.) is 2.35 µmol/min/mL; in the data set on D-allose dehydrogenase [2] (Buffer 0.5 molar, initial pH 9.0, final pH 8.9, 100 mM D-allose, 30° C.) it was 2.56 µmol/min/mL; with D-allose dehydrogenase [2] (Buffer 1.0 molar, initial pH 9.0, final pH 9.0, 100 mM D-allose, 30° C.), 2.75 µmol/min/mL; in the data set on D-allose dehydrogenase [2] (Buffer 2.0 molar, initial pH 9.0, final pH 9.0, 100 mM D-allose, 30° C.) it was 3.13 µmol/min/mL; with D-allose dehydrogenase [2] (D-allose 1 mM, constant amount of enzyme extract) it was 0.13 μmole/min/ml of extract; in the data set on D-allose dehydrogenase [2] (D-allose 10 mM, constant amount of enzyme extract) it was 0.80 μmole/min/ml of extract. Moreover, the Activity in the data set with D-allose dehydrogenase [2] (D-allose 100 mM, constant amount of enzyme extract) is 3.07 μmole/min/ml of extract; with D-allose dehydrogenase [2] (Enzyme Extract 20 μL, 100 mM D-allose, 30° C.), 0.09 µmol/min; with D-allose dehydrogenase [2] (Enzyme Extract 50 μL, 100 mM D-allose, 30° C.), 0.15 µmol/min; in the data set with D-allose dehydrogenase [2] (Enzyme Extract 100 μL, 100 mM D-allose, 30° C.), 0.26 µmol/min; with D-allose dehydrogenase [2] (pH of assay buffer 8.0, 100 mM D-allose, 30° C.), below 0.05 µmol/min/mL; in the data set on D-allose dehydrogenase [2] (pH of assay buffer 8.5, 100 mM D-allose, 30° C.), 0.78 µmol/min/mL. Further, the Activity in the data set on D-allose dehydrogenase [2] (pH of assay buffer 9.0, 100 mM D-allose, 30° C.) is 2.38 µmol/min/mL and 2.31 µmol/min/mL; in the data set with D-allose dehydrogenase [2] (pH of assay buffer 9.5, 100 mM D-allose, 30° C.) it was 0.10 µmol/min/mL; with D-allose dehydrogenase [2] (pH of assay buffer 10.0, 100 mM D-allose, 30° C.), below 0.05 µmol/min/mL. Also, the “% Inhibition” value in the data set with D-allose dehydrogenase [2] (D-allose 10 mM in 20% human serum) is reported as 16%. The “Activity (carbohydrate specificity)” value in the data set with D-allose dehydrogenase [2] amounted to 2.93 µmol/min/mL. Also, in data set [3], the excretion entry is listed as “easily excreted”. In addition, in data set [3], the metabolism result is reported as “not readily metabolized”.

On to `O=C[C@H](O)[C@@H](O)[C@H](O)[C@H](O)CO` [D-glucose, reference compound], for which the “Activity (carbohydrate specificity)” value with D-allose dehydrogenase [2] is below 0.07 µmol/min/mL.

Consider `O=C[C@@H](O)[C@@H](O)[C@H](O)[C@H](O)CO` [D-mannose, reference compound], for which, in the data set on D-allose dehydrogenase [2], the “Activity (carbohydrate specificity)” value was below 0.07 µmol/min/mL.

Consider `O=C[C@@H](O)[C@H](O)[C@H](O)[C@H](O)CO` [D-altrose, reference compound], for which the “Activity (carbohydrate specificity)” value with D-allose dehydrogenase [2] was below 0.07 µmol/min/mL.

For `O=C[C@H](O)[C@H](O)[C@H](O)CO` [D-ribose, reference compound], the “Activity (carbohydrate specificity)” value with D-allose dehydrogenase [2] was below 0.07 µmol/min/mL.
